Results: patent publication US20190241535A1, “3-SUBSTITUTED CARBONYL-NAPHTHO[2,3-B]FURANE DERIVATIVE OR PHARMACEUTICALLY ACCEPTABLE SALT THEREOF” (Boston Biomedical, Inc., priority 2014, published 2019)
Where two headings read alike, the source gives them in different places.

Experiment: Test 4: concentration of the test compounds in plasma
Assay type: in vivo
Details: mouse, po, 25 mg/kg, 25 mg/kg po
Method: Administration method: The test compound scaled to a given weight was suspended in 0.5% methylcellulose to prepare an administration solution. A mouse was weighed, and the administration solution was orally administered to the mouse depending on its weight.
Blood sampling method: EDAT-2K was added to a blood collection tube, into which the blood of the mouse was sampled. The sampled blood was centrifuged to give plasma.
Preparation of standard solution: The test compound scaled to 1 mg was dissolved in 10 mL of MeOH in a volumetric flask to prepare a 100 μg/mL standard solution.
Measure of the concentration in plasma: The 100 μg/mL standard solution was diluted with MeOH to prepare a sample for calibration curve which has the desired concentration. To 50 μL of the sample for calibration curve was added 50 μL of the blank plasma to prepare a sample for plasma calibration curve. To 50 μL of the plasma sample treated with the test compound was added 50 μL of MeOH to prepare a sample for analyzing plasma. To each 100 μL of the sample for plasma calibration curve and the sample for analyzing plasma was added 150 μL of MeOH containing an internal standard respectively. The internal standard used herein was bezafibrate, the concentration of which was 200 nM. Each 5 μL of the samples was analyzed with an LC-MS. The calibration curve was prepared based on the peak ratio of MS peak area of the test sample per that of the internal standard, and the concentration of the sample for plasma calibration curve. The concentration of the test compound in each sample was calculated based on the peak ratio of each sample, and the calibration curve.

[1] = animal 1, read-out: Concentration in plasma, animal 1
[2] = animal 2, read-out: Concentration in plasma, animal 2
[3] = animal 3, read-out: Concentration in plasma, animal 3
[4] = mean of 3, read-out: Concentration in plasma, mean

concentration at 2 hr [1]: 508 ng/mL
concentration at 2 hr [2]: 473 ng/mL
concentration at 2 hr [3]: 384 ng/mL
concentration at 2 hr [4]: 455 ng/mL
concentration at 6 hr [1]: 351 ng/mL
concentration at 6 hr [2]: 2800 ng/mL
concentration at 6 hr [3]: 334 ng/mL
concentration at 6 hr [4]: 1160 ng/mL
Compound: CN1CCN(C(=O)c2c(C(F)(F)F)oc3c2C(=O)c2ccccc2C3=O)CC1 [Example 8, 3-(4-Methylpiperazine-1-carbonyl)-2-(trifluoromethyl)naphtho[2,3-b]furan-4,9-dione]
